Article PMC4979471 (Cell Death Discovery, 2015)
Where two headings read alike, the source gives them in different places.

What was measured:
Assay in all cases: Kinase selectivity, P33-radiolabeled assay
Format in all cases: biochemical
Details in all cases: 10 μM ATP
PRKX = target: T1, PRKX (Homo sapiens, UniProt P51817)
T1 construct: purchased Reaction Biology Corp
T1 sequence (P51817 1-358): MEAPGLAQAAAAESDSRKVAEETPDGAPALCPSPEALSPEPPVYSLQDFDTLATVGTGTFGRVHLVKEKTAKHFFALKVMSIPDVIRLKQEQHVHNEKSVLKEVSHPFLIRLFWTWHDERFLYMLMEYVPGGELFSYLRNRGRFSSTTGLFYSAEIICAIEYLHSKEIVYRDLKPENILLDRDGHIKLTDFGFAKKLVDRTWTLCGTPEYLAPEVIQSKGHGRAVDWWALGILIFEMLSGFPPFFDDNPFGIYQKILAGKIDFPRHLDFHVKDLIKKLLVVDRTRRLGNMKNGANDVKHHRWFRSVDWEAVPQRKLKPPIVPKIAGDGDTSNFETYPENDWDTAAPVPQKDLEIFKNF
Summary of the method: (§1)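 Reactions contained 10 μM ATP and 10 μM test compound, each run in duplicate. Kinase activity is expressed as a percentage of DMSO-treated controls.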

KHS/MAP4K5 = target: T2, KHS/MAP4K5 (Homo sapiens, UniProt Q9Y4K4)
T2 construct: purchased Reaction Biology Corp
T2 sequence (Q9Y4K4 whole entry): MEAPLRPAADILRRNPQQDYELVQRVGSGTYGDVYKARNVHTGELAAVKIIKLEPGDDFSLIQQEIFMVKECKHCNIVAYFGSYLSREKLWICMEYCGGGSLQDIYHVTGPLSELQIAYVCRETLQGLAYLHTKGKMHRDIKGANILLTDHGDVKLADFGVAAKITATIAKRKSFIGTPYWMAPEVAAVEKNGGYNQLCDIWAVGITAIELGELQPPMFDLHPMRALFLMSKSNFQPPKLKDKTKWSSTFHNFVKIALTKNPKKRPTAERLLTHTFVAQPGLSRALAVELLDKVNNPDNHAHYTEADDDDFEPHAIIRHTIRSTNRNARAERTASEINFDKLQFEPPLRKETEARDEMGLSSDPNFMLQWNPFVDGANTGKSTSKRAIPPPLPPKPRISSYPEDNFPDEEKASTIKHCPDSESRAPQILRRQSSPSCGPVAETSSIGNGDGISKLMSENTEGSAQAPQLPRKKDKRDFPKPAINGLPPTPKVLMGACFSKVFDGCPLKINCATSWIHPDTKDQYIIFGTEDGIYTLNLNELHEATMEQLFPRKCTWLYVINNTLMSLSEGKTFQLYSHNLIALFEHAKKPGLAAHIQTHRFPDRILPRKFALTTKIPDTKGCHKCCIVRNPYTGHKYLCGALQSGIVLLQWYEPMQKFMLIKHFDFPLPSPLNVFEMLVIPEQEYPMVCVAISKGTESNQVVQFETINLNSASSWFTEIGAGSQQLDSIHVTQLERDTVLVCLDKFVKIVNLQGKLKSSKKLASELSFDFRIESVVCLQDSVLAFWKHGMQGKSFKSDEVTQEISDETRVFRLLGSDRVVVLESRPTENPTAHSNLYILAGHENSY
Summary of the method: as §1

CAMK1a = target: T3, CAMK1a (Homo sapiens, UniProt Q14012)
T3 construct: purchased Reaction Biology Corp
T3 sequence (Q14012 whole entry): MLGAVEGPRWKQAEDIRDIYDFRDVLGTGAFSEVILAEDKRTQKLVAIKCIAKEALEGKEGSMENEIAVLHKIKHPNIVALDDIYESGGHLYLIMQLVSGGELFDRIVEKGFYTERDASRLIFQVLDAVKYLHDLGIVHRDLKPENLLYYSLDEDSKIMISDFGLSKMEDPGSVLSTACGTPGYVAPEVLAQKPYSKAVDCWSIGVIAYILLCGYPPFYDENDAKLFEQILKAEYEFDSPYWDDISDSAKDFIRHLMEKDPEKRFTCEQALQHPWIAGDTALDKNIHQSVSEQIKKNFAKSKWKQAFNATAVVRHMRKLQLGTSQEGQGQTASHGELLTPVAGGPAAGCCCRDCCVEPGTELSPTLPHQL
Summary of the method: as §1

FER = target: T4, FER (Homo sapiens, UniProt P16591)
T4 construct: purchased Reaction Biology Corp
T4 sequence (P16591 whole entry): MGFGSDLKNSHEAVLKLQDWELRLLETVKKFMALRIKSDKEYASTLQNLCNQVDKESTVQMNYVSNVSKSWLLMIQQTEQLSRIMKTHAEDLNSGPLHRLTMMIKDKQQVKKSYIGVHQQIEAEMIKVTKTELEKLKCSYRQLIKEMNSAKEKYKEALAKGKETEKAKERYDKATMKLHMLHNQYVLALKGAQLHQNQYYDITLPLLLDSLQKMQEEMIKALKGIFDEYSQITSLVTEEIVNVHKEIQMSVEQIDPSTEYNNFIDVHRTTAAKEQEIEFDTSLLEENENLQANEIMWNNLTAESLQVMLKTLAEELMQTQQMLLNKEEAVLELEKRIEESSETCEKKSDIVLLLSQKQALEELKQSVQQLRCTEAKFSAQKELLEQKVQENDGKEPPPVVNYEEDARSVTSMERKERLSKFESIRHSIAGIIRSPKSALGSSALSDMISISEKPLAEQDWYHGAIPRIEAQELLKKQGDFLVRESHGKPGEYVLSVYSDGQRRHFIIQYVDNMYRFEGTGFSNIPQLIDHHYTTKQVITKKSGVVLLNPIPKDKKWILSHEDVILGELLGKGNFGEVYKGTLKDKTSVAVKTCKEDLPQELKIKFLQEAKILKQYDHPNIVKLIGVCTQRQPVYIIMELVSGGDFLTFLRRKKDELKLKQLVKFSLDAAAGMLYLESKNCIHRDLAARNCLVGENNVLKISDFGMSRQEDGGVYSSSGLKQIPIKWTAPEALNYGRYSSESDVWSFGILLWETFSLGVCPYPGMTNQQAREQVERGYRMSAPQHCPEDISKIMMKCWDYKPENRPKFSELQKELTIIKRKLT
Summary of the method: as §1

PKG1b = target: T5, PKG1b (Homo sapiens, UniProt Q13976)
T5 construct: purchased Reaction Biology Corp
T5 sequence (Q13976 1-686 isoform Q13976-2): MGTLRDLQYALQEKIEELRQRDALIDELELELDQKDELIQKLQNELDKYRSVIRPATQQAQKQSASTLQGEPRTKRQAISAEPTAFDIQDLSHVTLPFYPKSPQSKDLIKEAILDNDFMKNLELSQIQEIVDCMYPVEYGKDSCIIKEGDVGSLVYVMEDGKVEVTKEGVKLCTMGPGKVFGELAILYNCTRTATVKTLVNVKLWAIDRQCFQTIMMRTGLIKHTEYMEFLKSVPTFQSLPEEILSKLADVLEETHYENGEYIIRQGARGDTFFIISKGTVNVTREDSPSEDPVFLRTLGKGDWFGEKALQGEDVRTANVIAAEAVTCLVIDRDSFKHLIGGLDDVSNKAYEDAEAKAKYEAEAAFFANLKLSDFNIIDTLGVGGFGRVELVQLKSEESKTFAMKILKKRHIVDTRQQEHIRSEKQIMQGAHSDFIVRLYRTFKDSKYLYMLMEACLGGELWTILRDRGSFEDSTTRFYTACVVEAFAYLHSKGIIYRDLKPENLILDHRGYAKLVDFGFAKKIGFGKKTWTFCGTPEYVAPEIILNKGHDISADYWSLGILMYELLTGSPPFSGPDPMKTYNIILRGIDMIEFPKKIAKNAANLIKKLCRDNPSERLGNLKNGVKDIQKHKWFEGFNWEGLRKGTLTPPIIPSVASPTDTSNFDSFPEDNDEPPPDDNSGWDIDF
Summary of the method: as §1

BRAF = target: T6, BRAF (Homo sapiens, UniProt P15056)
T6 construct: purchased Reaction Biology Corp
T6 sequence (P15056 whole entry): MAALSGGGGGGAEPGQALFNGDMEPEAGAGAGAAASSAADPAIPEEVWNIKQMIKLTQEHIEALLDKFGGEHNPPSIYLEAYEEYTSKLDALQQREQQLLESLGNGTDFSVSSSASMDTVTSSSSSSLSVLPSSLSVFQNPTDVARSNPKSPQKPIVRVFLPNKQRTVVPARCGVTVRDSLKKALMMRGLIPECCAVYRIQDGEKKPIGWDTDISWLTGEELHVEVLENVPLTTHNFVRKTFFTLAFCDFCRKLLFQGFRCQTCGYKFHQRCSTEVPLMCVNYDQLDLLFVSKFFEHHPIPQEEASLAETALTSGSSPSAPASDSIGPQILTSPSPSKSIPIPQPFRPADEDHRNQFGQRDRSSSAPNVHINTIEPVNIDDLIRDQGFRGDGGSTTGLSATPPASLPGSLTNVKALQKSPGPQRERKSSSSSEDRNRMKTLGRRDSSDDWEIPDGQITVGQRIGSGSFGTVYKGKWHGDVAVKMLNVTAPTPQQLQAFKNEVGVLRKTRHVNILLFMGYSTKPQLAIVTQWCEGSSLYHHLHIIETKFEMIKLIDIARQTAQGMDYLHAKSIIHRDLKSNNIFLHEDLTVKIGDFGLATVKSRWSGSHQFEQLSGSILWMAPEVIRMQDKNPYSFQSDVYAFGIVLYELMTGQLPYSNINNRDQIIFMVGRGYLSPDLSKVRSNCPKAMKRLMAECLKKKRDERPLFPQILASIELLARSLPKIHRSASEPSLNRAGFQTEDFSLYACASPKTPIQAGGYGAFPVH
Summary of the method: as §1

BRSK1 = target: T7, BRSK1 (Homo sapiens, UniProt Q8TDC3)
T7 construct: purchased Reaction Biology Corp
T7 sequence (Q8TDC3 1-778): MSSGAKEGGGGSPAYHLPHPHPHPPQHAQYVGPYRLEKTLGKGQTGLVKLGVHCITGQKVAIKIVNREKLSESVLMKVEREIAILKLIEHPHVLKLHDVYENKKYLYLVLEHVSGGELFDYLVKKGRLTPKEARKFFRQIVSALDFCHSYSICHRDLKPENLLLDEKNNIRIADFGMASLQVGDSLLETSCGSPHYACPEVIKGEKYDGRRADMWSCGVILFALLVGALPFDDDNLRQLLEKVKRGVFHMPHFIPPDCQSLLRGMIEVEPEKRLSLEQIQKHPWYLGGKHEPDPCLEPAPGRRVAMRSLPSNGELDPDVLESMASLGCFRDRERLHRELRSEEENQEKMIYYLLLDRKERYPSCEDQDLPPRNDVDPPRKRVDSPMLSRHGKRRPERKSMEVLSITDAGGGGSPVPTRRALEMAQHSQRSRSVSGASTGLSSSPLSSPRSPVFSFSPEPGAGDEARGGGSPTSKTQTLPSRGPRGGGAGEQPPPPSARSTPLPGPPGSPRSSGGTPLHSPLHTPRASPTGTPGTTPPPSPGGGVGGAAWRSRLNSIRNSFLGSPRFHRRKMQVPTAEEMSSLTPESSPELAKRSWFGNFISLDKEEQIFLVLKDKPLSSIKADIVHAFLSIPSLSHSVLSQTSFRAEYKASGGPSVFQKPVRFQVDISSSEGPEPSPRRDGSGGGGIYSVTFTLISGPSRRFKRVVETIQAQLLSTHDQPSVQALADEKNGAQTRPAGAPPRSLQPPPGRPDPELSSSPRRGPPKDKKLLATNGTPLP
Summary of the method: as §1

[1] = read-out: % Enzyme Activity (relative to DMSO controls) AVG
[2] = read-out: % Enzyme Activity (relative to DMSO controls) Data 1
[3] = read-out: % Enzyme Activity (relative to DMSO controls) Data 2

CC(C)(C)C(=O)N1N=CC[C@H]1c1ccccc1 [GSK′963]
remaining activity at 10 µM (PRKX; [1]): 107%
remaining activity at 10 µM (PRKX; [2]): 106%
remaining activity at 10 µM (PRKX; [3]): 107%
remaining activity at 10 µM (KHS/MAP4K5; [1]): 93.8%
remaining activity at 10 µM (KHS/MAP4K5; [2]): 91.7%
remaining activity at 10 µM (KHS/MAP4K5; [3]): 96%
remaining activity at 10 µM (CAMK1a; [1]): 96.3%
remaining activity at 10 µM (CAMK1a; [2]): 99.3%
remaining activity at 10 µM (CAMK1a; [3]): 93.3%
remaining activity at 10 µM (FER; [1]): 107%
remaining activity at 10 µM (FER; [2]): 109%
remaining activity at 10 µM (FER; [3]): 105%
remaining activity at 10 µM (PKG1b; [1]): 80.5%
remaining activity at 10 µM (PKG1b; [2]): 78.3%
remaining activity at 10 µM (PKG1b; [3]): 82.6%
remaining activity at 10 µM (BRAF; [1]): 89.4%
remaining activity at 10 µM (BRAF; [2]): 89.4%
remaining activity at 10 µM (BRAF; [3]): 89.4%
remaining activity at 10 µM (BRSK1; [1]): 95.2%
remaining activity at 10 µM (BRSK1; [2]): 96.9%
remaining activity at 10 µM (BRSK1; [3]): 93.5%
